Reference: paper PMC7280531, “A PROTAC peptide induces durable β-catenin degradation and suppresses Wnt-dependent intestinal cancer” (Cell Discovery, 2020)
Where a SMILES comes first, the peptide text is derived from it. Bridges are numbered along the chain shown (N, C = ends). [ ]: non-standard residue; d: D form. S5 = C=CCCC[C@](C)(N)C(=O)O; Ahx = NCCCCCC(=O)O

Key:
Format in all cases: cell-based
β-catenin = β-catenin immunoblotting in colorectal cancer cells (HCT116, SW480, LoVo); details: for β-catenin protein level, MSAB versus xStAx-VHLL: 50 μM xStAx-VHLL
Description: Relative
β-catenin protein level was quantified with ImageJ and normalized to GAPDH. Data […]
(b) LoVo cells were treated with 50 μM xStAx (xS), 50 μM
immunoblotting. (c, d) LoVo (c) and SW480 (d) cells were treated with different

Wnt/β-catenin signaling = experiment: Topflash luciferase reporter assay in HEK293T cells; details: Wnt3a CM, 24 h
Description: Dual luciferase reporter assay system (Promega) was used. HEK293T cells, cultured in 24-well plates, were transfected with 200 ng Topflash plasmid and 30 ng Renilla plasmid for 3-well cells. […] Then harvested the cells for luciferase activity measurement.

wild-type organoids = experiment: Wild-type mouse intestinal organoid culture; details: 10 μM peptides
Description: Fig. 5 xStAx-VHLL inhibits the growth of wild-type and APC^−/− organoids. a Wild-type organoids were cultured with 10 μM peptides for 4 days. The trypan blue staining at day 4 indicated the dead organoids. Scale bar = 100 μm. […] Relative β-catenin and cleaved caspase3 protein levels were quantified. e Wild-type organoids were cultured with 10 μM peptides for 3 h and harvested for qPCR analysis of Wnt target genes. f APC^−/− organoids were cultured with 50 μM peptides for 4 days. The trypan blue staining at day 4 indicated the dead organoids. Scale bar = 100 μm. […] Relative β-catenin and cleaved caspase3 protein levels were quantified. The relative band intensity was quantified with ImageJ and normalized to GAPDH levels.
Mouse intestinal crypts isolation and organoid culture were performed as previously described. Briefly, mouse intestine was cut longitudinally and washed three times with cold PBS. Villi were carefully scraped away and small pieces (5 mm) of intestine were incubated in 0.5 M EDTA in PBS for 40 min on ice. These pieces were then vigorously suspended in cold PBS and the mixture was passed through 70 μm cell strainer (BD Biosciences). The crypt fraction was enriched through centrifugation (3 min at 300–400 g). Then the crypts were embedded in Matrigel (BD Biosciences) and seeded on 48-well or 24-well plates. The intestinal organoid culture medium consists of Advanced DMEM/F12 supplemented with Penicillin/Streptomycin, GlutaMAX-I, N2, B27 and N-acetylcysteine (Sigma-Aldrich) and combination of growth factors including EGF (50 ng/mL, Invitrogen), Noggin (100 ng/mL, R&D) and R-spondin1 (500 ng/mL). The organoids were treated with proper dilution of peptides in the medium.
Supplementary Fig. S7. xStAx-VHLL restricts Lgr5+ intestinal stem cell
population and cell viability in intestinal organoids.
The organoids derived from the small intestine of Lgr5-GFP mice were treated with
10 μM peptides for 36 h and then collected for CytoFLEX flow cytometry to count
Lgr5+ intestinal stem cells (a) or viable cells (b). Data from 3 independent
(§1) (1 picture or pasted object on this page, not shown here)

LoVo cells = experiment: Cell proliferation assay (CCK-8), LoVo cells; details: 6 days
Description: Equal number of cells (8000–10,000 cells) were seeded in the 24-well plates and then subjected to different treatments. The cell numbers were counted every 24 h with the CCK-8 cell counting kit (Dojindo Molecular Technologies) according to manufacturer’s instructions.

SW480 cells = experiment: Cell permeability of FITC-labeled peptides in SW480 cells (confocal microscopy)
Description: After elongation of the peptide and metathesis reaction were conducted on the resin according to a general protocol. Then, the Fmoc group was removed and the resin was treated with Fmoc-Ahx-OH (4 eq.), DIC (4 eq.), Oxyma pure (4 eq.) and NMP (6 mL) for 15 min at 60 °C. The Fmoc group was removed and the resin was treated with fluorescein isothiocyanate (FITC, 2 eq.) and DIPEA (2 eq.) in DMF (6 mL) at room temperature overnight. The biotinylated labeling was carried out as routine amino acid. Cleavage was conducted following a general protocol and crude peptide was purified by RP- HPLC to give the final products.
Supplementary Fig. S3. Cell permeability of FITC-labeled peptides in SW480 […]
(a) The uptake of FITC-labeled peptides into SW480 was examined after incubation for 6 h by confocal microscopy. The nuclei were counter-stained with DAPI. Scale bar = 100 μm. (b) FITC-xStAx and FITC-xStAx-VHLL were added to SW480 cells for 6 h, and then washed out with the growth medium. After 24 h and 48 h, the cells were counter-stained with DAPI and examined by confocal microscopy. Scale bar = 100 […]
as §1

[1] = Lgr5-GFP organoids, 36 h, flow cytometry

CC[C@H](C)[C@@H]1NC(=O)[C@@](C)(NC(=O)[C@H](CCCNC(=N)N)NC(=O)[C@@H]2CCCN2C(=O)[C@H](Cc2c[nH]c3ccccc23)NC(=O)[C@H](CCCNC(=N)N)NC(=O)[C@H](CCCNC(=N)N)NC(C)=O)CCCC=CCCC[C@@](C)(C(=O)N[C@@H](Cc2c[nH]cn2)C(=O)N[C@H](C(=O)N[C@@H](CCCNC(=N)N)C(=O)N[C@@H](CCCNC(=N)N)C(=O)N[C@H](C(=O)N[C@@H](Cc2c[nH]c3ccccc23)C(=O)N[C@@H](CCCNC(=N)N)C(=O)NCCCCCC(=O)N[C@@H](C)C(=O)N[C@@H](CC(C)C)C(=O)N[C@@H](C)C(=O)N2CCC[C@H]2C(=O)N[C@@H](Cc2ccc(O)cc2)C(=O)N[C@H](C(=O)N2CCC[C@H]2C(N)=O)[C@@H](C)CC)C(C)C)C(C)C)NC(=O)[C@H](CC(=O)O)NC(=O)[C@H](CC(C)C)NC1=O [xStAx-VHLL] (Ac-RRWPR[S5]ILD[S5]HVRRVWR[Ahx]ALAPYIP-NH2; staple 6-10; N-terminus and C-terminus assumed)
dose dependence of β-catenin degradation (β-catenin; CRC cells (HCT116, LoVo, SW480), indicated concentrations, 24 h): dose-dependent manner
β-catenin level after wash-out of the peptide (β-catenin; HCT116, 50 μM peptide 24 h, then fresh medium 24 or 48 h): remained low after 24 h
β-catenin degradation in colorectal cancer cells (β-catenin; HCT116, SW480 or LoVo, 50 μM peptides, 24 h, immunoblot): promotes the degradation of β-catenin
β-catenin protein level, MSAB versus xStAx-VHLL (β-catenin; HCT116 and SW480, 10 μM MSAB, 24 h): decreased β-catenin protein to a comparable level
β-catenin protein level, MSAB versus xStAx-VHLL (β-catenin; LoVo, 10 μM MSAB, 24 h): able to reduce the β-catenin protein level
inhibition of Wnt-induced Topflash-luciferase compared with small-molecule inhibitors (Wnt/β-catenin signaling; 70 μM xStAx-VHLL vs 10 μM XAV939, 20 μM PRI-724, 100 μM PNU-74654, 10 μM MSAB): comparable inhibition
dose dependence of effect on Wnt signaling (Topflash) (Wnt/β-catenin signaling; indicated concentrations): dose-dependent effect on Wnt signaling
Wnt3a-induced expression of the Topflash-luciferase reporter (Wnt/β-catenin signaling; peptides 70 μM each): more potent in decreasing the Wnt3a-induced expression of the reporter
Wnt signaling target genes Lgr5, Axin2, Cyclin D1 and Myc (wild-type organoids; 3 h, qPCR): remarkably decreased
cleaved caspase 3 level (wild-type organoids; 24 h, immunoblot): increased the cleaved caspase 3 level
β-catenin protein level (wild-type organoids; 24 h, immunoblot): reduced the β-catenin protein level
organoid survival and bud formation (wild-type organoids; 4 days): obviously impeded organoid survival and bud formation
Lgr5+ intestinal stem cells (wild-type organoids; [1]): reduced
viable cell population (wild-type organoids; [1]): also decreased
proliferation of LoVo cells (LoVo cells; 50 μM peptides, cell number counted each day): significantly attenuated the proliferation
proliferation of LoVo cells, MSAB versus xStAx-VHLL (LoVo cells; 1 × 10^4 cells, 10 μM MSAB or 50 μM xStAx-VHLL): hampered by xStAx-VHLL
retention in the cell after wash-out (SW480 cells; 6 h, washed out with growth medium, examined after 24 h and 48 h): retained in the cell much longer
membrane permeability / uptake into cells (SW480 cells; 6 h incubation): could efficiently enter into a cell
